# Assays:
# Rattus norvegicus [1] = assay: Acute toxicity in rat assessed as induction of red urine excretion at 10 mg/kg, iv administered for 30 mins measured after 1 hr post dose; type: organism-based; details: in vivo
# Rattus norvegicus [2] = assay: Acute toxicity in rat assessed as lethargy at 10 mg/kg, iv administered for 30 mins measured at 1 hr post dose; type: organism-based; details: in vivo
# Rattus norvegicus [3] = assay: Acute toxicity in rat assessed as labored breathing at 10 mg/kg, iv administered for 30 mins measured immediately and 10 mins post dose; type: organism-based; details: in vivo
# Rattus norvegicus [4] = assay: Acute toxicity in rat assessed as recumbency at 10 mg/kg, iv administered for 30 mins measured immediately and 10 mins post dose; type: organism-based; details: in vivo
# Rattus norvegicus [5] = assay: Acute toxicity in rat assessed as induction of red urine excretion at 10 mg/kg, iv administered for 30 mins measured immediately, 10 mins and 1 hr post dose; type: organism-based; details: in vivo
# Rattus norvegicus [6] = assay: Acute toxicity in rat assessed as mortality at 10 mg/kg, iv administered for 30 mins measured post dose; type: organism-based; details: in vivo, 0.5 h
# Mus musculus [7] = assay: Toxicity in athymic nude mouse xenografted with human TT cells at 7.5 to 15 mg/kg, ip qd administered for 2 weeks; type: organism-based; details: in vivo, 336 h
# OVCAR-3 = assay: Induction of DNA damage in human OVCAR3 cells assessed as increase in gamma-H2AX levels at 10 uM in presence of topotecan; type: functional
# Mus musculus [8] = assay: Toxicity in athymic nude mouse xenografted with human HT-29 cells assessed as overt toxicity at 10 to 20 mg/kg, ip qd administered 5 days for 2 weeks; type: organism-based; details: in vivo
# Mus musculus [9] = assay: Toxicity in athymic nude mouse xenografted with human HT-29 cells assessed as loss of body weight at 10 to 20 mg/kg, ip qd administered 5 days for 2 weeks; type: organism-based; details: in vivo
# A549 = assay: Antitumor activity against human A549 cells xenografted in athymic nude mouse assessed as tumor growth at 10 mg/kg, po qd administered 5 days for 3 weeks measured on day 26 (reference value: 43 mm3/day); type: functional
# Mus musculus [10] = assay: Toxicity in athymic nude mouse xenografted with human A549 cells assessed as loss of body weight at 50 to 150 mg/kg, po qd administered 5 days for 3 weeks; type: organism-based; details: in vivo
# Canis familiaris [11] = assay: Acute toxicity in Beagle dog assessed as weight gain at 10 mg/kg, iv administered for 48 hrs followed by 20 mg/kg, iv administered for 3 days measured everyday after second dose; type: organism-based, Canis lupus familiaris; details: in vivo
# Canis familiaris [12] = assay: Acute toxicity in male Beagle dog assessed as adverse clinical signs at 10 mg/kg, iv; type: organism-based, Canis lupus familiaris; details: in vivo
# Canis familiaris [13] = assay: Acute toxicity in Beagle dog assessed as adverse events at 10 mg/kg, iv administered for 48 hrs followed by 20 mg/kg, iv administered for 3 days measured everyday after second dose; type: organism-based, Canis lupus familiaris; details: in vivo
# Canis familiaris [14] = assay: Acute toxicity in Beagle dog assessed as thrombus formation in veins at 10 mg/kg, iv administered for 48 hrs followed by 20 mg/kg, iv administered for 3 days measured post dose; type: organism-based, Canis lupus familiaris; details: in vivo
# Canis familiaris [15] = assay: Acute toxicity in male Beagle dog assessed as mild venous congestion in meningeal vein between brain hemispheres and in venous sinus on cranial floor at 10 mg/kg, iv administered for 48 hrs followed by 20 mg/kg, iv administered for 3 days measured post dose; type: organism-based, Canis lupus familiaris; details: in vivo
# Canis familiaris [16] = assay: Acute toxicity in Beagle dog assessed as animal appearance at 0.625 to 20 mg/kg, iv administered with 48 to 96 hrs between dose escalations with exception of 11 days between dose 5 and 6 measured after doses 1 through 5 and prior to dose 6; type: organism-based, Canis lupus familiaris; details: in vivo
# Canis familiaris [17] = assay: Acute toxicity in Beagle dog assessed as anxiety at 0.625 to 20 mg/kg, iv dosed with 48 to 96 hrs between dose escalations with exception of 11 days between dose 5 and 6 measured during dose 6 administration; type: organism-based, Canis lupus familiaris; details: in vivo
# Canis familiaris [18] = assay: Acute toxicity in Beagle dog assessed as facial swelling at 0.625 to 20 mg/kg, iv dosed with 48 to 96 hrs between dose escalations with exception of 11 days between dose 5 and 6 measured during dose 6 administration; type: organism-based, Canis lupus familiaris; details: in vivo
# Canis familiaris [19] = assay: Acute toxicity in Beagle dog assessed as urination at 0.625 to 20 mg/kg, iv dosed with 48 to 96 hrs between dose escalations with exception of 11 days between dose 5 and 6 measured during dose 6 administration; type: organism-based, Canis lupus familiaris; details: in vivo
# Canis familiaris [20] = assay: Acute toxicity in Beagle dog assessed as defecation at 0.625 to 20 mg/kg, iv dosed with 48 to 96 hrs between dose escalations with exception of 11 days between dose 5 and 6 measured during dose 6 administration; type: organism-based, Canis lupus familiaris; details: in vivo
# Canis familiaris [21] = assay: Acute toxicity in Beagle dog assessed as depression at 0.625 to 20 mg/kg, iv dosed with 48 to 96 hrs between dose escalations with exception of 11 days between dose 5 and 6 measured during dose 6 administration; type: organism-based, Canis lupus familiaris; details: in vivo
# Canis familiaris [22] = assay: Acute toxicity in Beagle dog assessed as recumbency at 0.625 to 20 mg/kg, iv dosed with 48 to 96 hrs between dose escalations with exception of 11 days between dose 5 and 6 measured during dose 6 administration; type: organism-based, Canis lupus familiaris; details: in vivo
# Canis familiaris [23] = assay: Acute toxicity in female Beagle dog assessed as mortality at 0.625 to 20 mg/kg, iv measured after 5 mins of completion of dose 6 administration; type: organism-based, Canis lupus familiaris; details: in vivo
# Canis familiaris [24] = assay: Acute toxicity in male Beagle dog assessed as animal appearance at 0.625 to 20 mg/kg, iv dosed with 48 to 96 hrs between dose escalations with exception of 11 days between dose 5 and 6 measured following day after dose 6 administration; type: organism-based, Canis lupus familiaris; details: in vivo
# Canis familiaris [25] = assay: Acute toxicity in female Beagle dog assessed as meningeal vessel congestion at 0.625 to 20 mg/kg, iv administered with 48 to 96 hrs between dose escalations with exception of 11 days between dose 5 and 6 measured after 21 days; type: organism-based, Canis lupus familiaris; details: in vivo, 504 h
# Canis familiaris [26] = assay: Acute toxicity in Beagle dog assessed as weight gain at 0.625 to 20 mg/kg, iv dosed with 48 to 96 hrs between dose escalations with exception of 11 days between dose 5 and 6 measured during course of 21 study days; type: organism-based, Canis lupus familiaris; details: in vivo
# Canis familiaris [27] = assay: Acute toxicity in female Beagle dog assessed as intestinal mucosal congestion at 0.625 to 20 mg/kg, iv administered with 48 to 96 hrs between dose escalations with exception of 11 days between dose 5 and 6 measured after 21 days; type: organism-based, Canis lupus familiaris; details: in vivo, 504 h
# Canis familiaris [28] = assay: Acute toxicity in Beagle dog at 20 mg/kg, iv; type: organism-based, Canis lupus familiaris; details: in vivo
# Rattus norvegicus [29] = assay: Acute toxicity in rat assessed as recumbency at 10 mg/kg, iv administered for 30 mins measured after 1 hr post dose; type: organism-based; details: in vivo
# Rattus norvegicus [30] = assay: Acute toxicity in rat assessed as lethargy at 10 mg/kg, iv administered for 30 mins measured after 1 hr post dose; type: organism-based; details: in vivo
# Rattus norvegicus [31] = assay: Acute toxicity in rat assessed as red tinged urine at 10 mg/kg, iv administered for 30 mins measured post dose; type: organism-based; details: in vivo, 0.5 h
# Rattus norvegicus [32] = assay: Acute toxicity in rat assessed as dark red mottled lungs at 10 mg/kg, iv administered for 30 mins measured post dose; type: organism-based; details: in vivo, 0.5 h
# Rattus norvegicus [33] = assay: Acute toxicity in rat assessed as normal appearance at 10 mg/kg, iv administered for 30 mins measured on day 4; type: organism-based; details: in vivo, 0.5 h
# Rattus norvegicus [34] = assay: Acute toxicity in rat assessed as red urine at 0.625 to 10 mg/kg, iv administered as single dose for 30 mins measured immediately, 10 mins and 1 hr post dose; type: organism-based; details: in vivo
# Rattus norvegicus [35] = assay: Acute toxicity in rat assessed as wobbly appearance at 0.625 to 10 mg/kg, iv administered as single dose for 30 mins measured immediately, 10 mins and 1 hr post dose; type: organism-based; details: in vivo
# Rattus norvegicus [36] = assay: Acute toxicity in rat assessed as loss of body weight at 0.625 to 10 mg/kg, iv administered as single dose for 30 mins measured on day 2; type: organism-based; details: in vivo, 0.5 h
# Rattus norvegicus [37] = assay: Acute toxicity in rat assessed as normal appearance at 0.625 to 10 mg/kg, iv administered as single dose for 30 mins measured on day 4; type: organism-based; details: in vivo, 0.5 h
# Rattus norvegicus [38] = assay: Acute toxicity in rat assessed as bright red lungs at 10 mg/kg, iv administered as single dose for 30 mins measured on day 4; type: organism-based; details: in vivo, 0.5 h
# Mus musculus [39] = assay: Toxicity in athymic nude mouse xenografted with human A549 cells assessed as loss of body weight at 10 mg/kg, po qd administered 5 days for 3 weeks; type: organism-based; details: in vivo
structure (smiles),measurement,setting,value
S=C(NCc1ccc2c(c1)OCO2)N1CCN(c2ncnc3c2oc2ccccc23)CC1 [AMUVATINIB],Activity,Rattus norvegicus [1],Non-Toxic
same,Activity,Rattus norvegicus [2],Toxic
same,Activity,Rattus norvegicus [3],Toxic
same,Activity,Rattus norvegicus [4],Toxic
same,Activity,Rattus norvegicus [5],Toxic
same,Activity,Rattus norvegicus [6],Toxic
same,Activity,Mus musculus [7],Non-Toxic
same,Activity,OVCAR-3,103%
same,Activity,Mus musculus [8],Toxic
same,Activity,Mus musculus [9],Non-Toxic
same,Activity,A549,19.5 mm3/day
same,Activity,Mus musculus [10],Non-Toxic
same,Activity,Canis familiaris [11],Toxic
same,Activity,Canis familiaris [12],Non-Toxic
same,Activity,Canis familiaris [13],Toxic
same,Activity,Canis familiaris [14],Toxic
same,Activity,Canis familiaris [15],Toxic
same,Activity,Canis familiaris [16],Non-Toxic
same,Activity,Canis familiaris [17],Toxic
same,Activity,Canis familiaris [18],Toxic
same,Activity,Canis familiaris [19],Toxic
same,Activity,Canis familiaris [20],Toxic
same,Activity,Canis familiaris [21],Toxic
same,Activity,Canis familiaris [22],Toxic
same,Activity,Canis familiaris [23],Toxic
same,Activity,Canis familiaris [24],Non-Toxic
same,Activity,Canis familiaris [25],Toxic
same,Activity,Canis familiaris [26],Toxic
same,Activity,Canis familiaris [27],Toxic
same,Activity,Canis familiaris [28],Toxic
same,Activity,Rattus norvegicus [29],Non-Toxic
same,Activity,Rattus norvegicus [30],Non-Toxic
same,Activity,Rattus norvegicus [31],Toxic
same,Activity,Rattus norvegicus [32],Toxic
same,Activity,Rattus norvegicus [33],Non-Toxic
same,Activity,Rattus norvegicus [34],Toxic
same,Activity,Rattus norvegicus [35],Toxic
same,Activity,Rattus norvegicus [36],Toxic
same,Activity,Rattus norvegicus [37],Non-Toxic
same,Activity,Rattus norvegicus [38],Toxic
O=c1[nH]cc(F)c(=O)[nH]1 [FLUOROURACIL],Activity,Mus musculus [39],Non-Toxic

# Source: ChEMBL document CHEMBL3991943, “Pharmaceutical formulations comprising salts of a protein kinase inhibitor and methods of using same” (2013)
